Experimental findings from patent US7611630B2, “Method and device for evaluation of pharmaceutical compositions” (Bend Research, Inc., priority 2004, dated 2009) are described below.

A short description of data set [1]: in vivo oral dosing of OPC, plasma concentration. As to conditions: dog, beagle dogs, Fed. On the procedure: The compositions tested in vitro in Examples 3-6 were tested in vivo to determine whether the in vitro results correlate with the in vivo results. For Examples 7 and 8, the composition was the same as that used in Example 3 (25% Drug 1:HPMCAS-M dispersion) dosed in the fasted state, and fed state, respectively. For Examples 9 and 10, the composition was the same as that used in Example 4 (crystalline Drug 1) dosed in the fasted state and fed state, respectively.
The compositions were orally dosed to beagle dogs in the form of an oral powder for constitution (OPC) by suspending the composition in about 15 mL of a solution of 3 wt % polyethylene glycol (PEG) with a molecular weight of 3,350 daltons, 0.5 wt % methylcellulose, and 0.15 wt % Polysorbate 80 in sterile water. In each case a sufficient amount of the pharmaceutical composition was used such that the OPC contained 90 mgA of Drug 1. The thus-formed OPCs were then dosed to dogs in either the fed state or fasted state (fasted overnight). Blood was collected from the jugular vein of the dogs before dosing and at various time points after dosing. To 100 μL of each plasma sample, 5 mL of methyl-tert-butyl ether (MTBE) and 1 mL of 500 mM sodium carbonate buffer (pH 9) were added; the sample was vortexed for 1 minute and then centrifuged for 5 minutes. The aqueous portion of the sample was frozen in a dry-ice/acetone bath, and the MTBE layer was decanted and evaporated in a vortex evaporator. Dried samples were reconstituted in 100 μL of mobile phase (33% acetonitrile and 67% of 0.1% formic acid in water). Analysis was carried out by HPLC.
The results of these tests are shown in Table 7, where Cmax,24 is the maximum concentration in the blood plasma during the first 24 hours, Tmax is the time to achieve the maximum concentration in the blood plasma and AUC0-24 is the concentration in the blood plasma area under the curve in the first 24 hours.

Data set [2] can be described thus: partition coefficient between organic fluid and water, from solubility ratio. The source says: [formula] where m is the rate at which drug is transported across the membrane (g/sec), Vp is the volume of the permeate solution (cm^3), [D]p is the concentration of drug in the permeate solution (g/cm^3), t is the time (sec), am is the membrane area (cm^2), Pov is the overall permeability coefficient (cm/sec), [Ddissolved]f is the concentration of dissolved drug in the feed solution (g/cm^3), and kp,mem is the partition coefficient of drug between the organic fluid and water, which is defined as the ratio of (1) the concentration of drug in the organic fluid, and (2) the concentration of dissolved neutral drug in the aqueous feed solution when the two solutions are at equilibrium. The partition coefficient can be estimated from the ratio of (1) the solubility of drug in the organic fluid and (2) the solubility of the dissolved drug in the aqueous feed solution.
The organic fluid consisted of 4 mL of decanol, which was added to the permeate reservoir. […] An overhead stirrer was used to stir the decanol permeate solution at 100 rpm.
The organic fluid used in these tests consisted of 5 mL of 20 wt % decanol in decane.

Data set [3] can be described thus: membrane-permeation test with un-treated (hydrophobic) microporous membrane. The data set is classed as in vitro ADME. On the procedure: A series of tests were performed using the procedure outlined in Example 1 except that an un-treated ACCUREL® PP 1E microporous polypropylene membrane was utilized in the test apparatus. The contact angle of a drop of water on the feed side of the membrane was greater than about 100°, and thus was hydrophobic. The flux of Drug 1 across the membrane was determined using the procedures outlined in Example 1 as a function of the amount of Drug 1 added to the feed solution. […] Without wishing to be bound by any particular theory or mechanism of action, it is believed that without the hydrophilic surface, particles of crystalline drug contacted the permeate solution (decanol) directly and dissolved into the decanol permeate solution, resulting in high maximum fluxes of Drug 1 across the membrane.

Take `CCOC(=O)N1c2ccc(C(F)(F)F)cc2[C@@H](N(Cc2cc(C(F)(F)F)cc(C(F)(F)F)c2)C(=O)OC)C[C@H]1CC` [Drug 1, [2R,4S]4-[(3,5-bis-trifluoromethyl-benzyl)-methoxycarbonyl-amino]-2-ethyl-6-trifluoromethyl-3,4-dihydro-2H-quinoline-1-carboxylic acid ethyl ester]: in data set [1] (oral OPC 90 mgA Drug 1), the Tmax turned out to be 2.3 ± 1.9 h. Also, the AUC(0-t) in data set [1] (oral OPC 90 mgA Drug 1, read-out: AUC0-24) stood at 928 ± 642 µg·h/mL. For the same compound, in data set [1] (oral OPC 90 mgA Drug 1, read-out: Cmax,24), the Cmax came out at 191 ± 55 µg/mL. Besides, the “partition coefficient between the organic fluid and water” value in data set [2] is listed as “greater than 650,000”. Moreover, the “partition coefficient of the drug between the organic fluid and PBS” value in data set [2] is listed as “greater than 650,000”. For the same compound, the “Maximum Flux of Drug” value in data set [3] (25 μg/mL Drug 1 added to the feed) worked out at 0.75 μg/cm^2-min; in data set [3] (50 μg/mL Drug 1 added to the feed), 1.5 μg/cm^2-min; in data set [3] (80 μg/mL Drug 1 added to the feed) it was 4.0 μg/cm^2-min; in data set [3] (200 μg/mL Drug 1 added to the feed), 7.1 μg/cm^2-min; in data set [3] (400 μg/mL Drug 1 added to the feed), 12.6 μg/cm^2-min; in data set [3] (700 μg/mL Drug 1 added to the feed) it was 26 μg/cm^2-min. Moreover, in data set [3] (1000 μg/mL Drug 1 added to the feed), the “Maximum Flux of Drug” value is recorded as 32 μg/cm^2-min.

One may read the Tmax as the time at which the peak concentration occurs. As a reminder, the Cmax is the maximum level reached in the sampled fluid or tissue.
